Assay results taken from paper PMC7200681, “The calcitonin-like system is an ancient regulatory system of biomineralization” (Scientific Reports, 2020).
Bridge positions count the residues as written; N and C are the ends.

Columns and labels:
Set-up in all cases: species or system Mytilus galloprovincialis
[1] = tested on: acid phosphatase (AP) activity in mussel mantle edge; test: Acid phosphatase (TRAP) activity in mantle after ex-vivo incubation; settings: after exposure to CALCIIa 10 μM or ouabain 2 mM; TRAP assay, pNPP, pH 5.3; p < 0.05
Protocol: (§1) (A) Esterase activity and (B) Acid phosphatase activity. Enzyme activity was quantified in protein extracts from the mantle of control or challenged samples that were incubated with the mussel CALCIIa peptide. Values represent the mean ± SEM (CA, n = 6 and TRAP, n = 10) performed in duplicate. Prism GraphPad v5 software was used to assess the significance of the differences between the groups using One-way Anova and Tukey’s multiple comparison test. […] C - control; P - peptide (10 μM); O - ouabain (2 mM), OP - ouabain (2 mM) and peptide (10 μM); PreOP - pre stimulation for 1 hour with the peptide and 4 hours incubation with OP.
(§2) The posterior mantle edge region of the Mediterranean mussel was collected and washed in culture medium. The composition of the culture medium was as described in[91] […] The culture medium was supplemented with heat inactivated 2% FBS (SIGMA-ALDRICH), 0.1% penicillin: streptomycin antibiotic mix (10.000 U:10 mg/ml, SIGMA-ALDRICH) and 250 μg/ml sterile filtered 1:100 amphotericin B solution (Sigma-Aldrich). The posterior mantle edge from mussels was collected into culture medium and cut into fragments of approximately 1–2 mm in length. […]
Acid phosphatase activity of the mantle protein extracts (n = 6/ group) was determined using 96 well-plates (GREINER, Germany) and a tartrate resistant acid phosphatase (TRAP) assay as described in[93].

[2] = tested on: alpha-carbonic anhydrase (CA) esterase activity in mussel mantle edge; test: Esterase (carbonic anhydrase) activity in mantle after ex-vivo incubation; settings: after exposure to CALCIIa 10 μM or ouabain 2 mM; 4-Nitrophenyl acetate substrate; n = 6
Protocol: as §1, §2
Esterase activity in the mussel posterior mantle edge (n = 6/experimental group) was quantified using a colorimetric assay that measures the conversion of the substrate 4-Nitrophenyl acetate to p-nitrophenolate[92]. […]

[3] = tested on: mussel mantle edge; test: Ex-vivo incubation of mantle edge fragments, calcium quantification by MP-AES; settings: 4 h at 19-20 °C; CALCIIa 10 μM or ouabain 2 mM alone; MP-AES at 393.366 nm; mean ± SEM; control 400.67 ±13.83 ppm; SEM
Protocol: Figure 7 Effect of the mussel calcitonin-like peptide on (A) calcium (ppm) concentration in the mantle edge and (B) calcium uptake by mantle cells of the Mediterranean mussel. (A) The quantity of calcium (ppm) present in the mantle edge after mussel CALCIIa peptide incubation was measured using a Microwave Plasma-Atomic Emission Spectrometer (MP-AES, Agilent) at 393.366 nm. A standard curve for calcium was performed before analysing the samples. In vitro mantle assays with CALCIIa peptide and with ouabain and control (culture medium and mantle) were repeated on at least 3 independent occasions. For each assay at least ten replicates were performed and the mantle edge distal to the umbo was used (one mantle fragment per replica). Prism GraphPad v5 software was used to assess the significance of differences between the groups using a One-way Anova and Tukey’s multiple comparison test. […] C - control (no peptide or ouabain); P - peptide (10 μM); O - ouabain (2 mM), OP - ouabain (2 mM) and peptide (10 μM); PreOP - pre -stimulation for 1 hour with the peptide followed by 4 hours incubation with OP. (B) Digital photographs of the mussel mantle cells in the presence (CALCIIa, 10 μM) or absence (control) of the mussel CALCIIa peptide. Calcium ions were stained with 50 mM of Calcein (green) and cell nuclei (blue) with DAPI (Acros Organics). An increase in cellular fluorescence represents an increase in calcium uptake. Fluorescence of the CALCIIa peptide stimulated cells was 1.9 times higher than the control. The average mantle cell size was 3–4 μm and fluorescent images were taken using a Leica DM IL microscope coupled to a Visicam HDMI 6 digital camera and photographs were analysed using ImageJ software (v. 1.52a) to calculate the fluorescence intensity and for image overlay. The scale bar is indicated.
The posterior mantle edge region of the Mediterranean mussel was collected and washed in culture medium. The composition of the culture medium was as described in[91] […]

H-CTWGGGMSDEMCSTVDIDEIQRSFQVIHDRNSP-NH2 (disulfide 1-12 (inferred)) [CALCIIa, Mediterranean mussel calcitonin-like mature peptide, 33 aa, synthesized with disulphide bond and C-terminal amidation]
Acid phosphatase (AP) activity in mantle edge compared to control (in words) [1]: significantly decreased
CA esterase activity in mantle edge (in words) [2]: No change
Calcium in the mantle edge after incubation [3]: 513.38 ± 24.33 ppm
